# Assay results published in a melting point compilation (Tetko et al.; mined from patent text by program, amines drawn as free bases though some values may be those of a salt).
row,melting point,SMILES
1,120 to 122 °C,COC(=O)[C@@H](Cc1c[nH]c2ccccc12)NS(=O)(=O)c1ccc(OC)cc1
2,97 to 98 °C,CCOC(=O)c1cn2c3c(cc(F)cc3c1=O)C1CCCCC12 (centres undefined)
3,104 to 107 °C,CN(C)CC(=O)N1Cc2cccc3c2N(CC3)c2ccccc21
4,80 to 82 °C,C=CCOc1ccc2oc(C(=O)c3ccc(F)cc3)c(C)c2c1
5,104 to 105 °C,Cc1oc(-c2ccc(C(F)(F)F)cc2)nc1COc1cccc(C=CC(C)n2oc(=O)[nH]c2=O)c1 (centres undefined)
6,> 300 °C,Cc1[nH]n(Cc2ccc(C(N)=O)cc2)c2nc(-c3ccncc3)nc(=O)c1-2
7,145 to 147 °C,O=C(Nc1c(F)cccc1F)c1ccc(-n2nc(C(F)(F)F)cc2C2CC2)cc1
8,334 to 337 °C,O=C(O)c1cccc2cc(Cc3cc(=O)[nH]c(=S)[nH]3)ccc12
9,150 °C,O=C1C(=Cc2ccccc2)C(=O)c2ccccc21
10,137 °C,CC#CCOc1ccc(SC(C(=O)O)c2ccc(-c3cccs3)cc2)cc1 (centres undefined)
11,100 to 102 °C,CCCCCCOc1ccc2[nH]c(SC(C)(C(=O)O)c3ccccc3)cc2c1 (centres undefined)
12,138 to 139 °C,CC(C)(CNc1ccnc2cc(Cl)ccc12)NCc1ccc(Cl)cc1Cl
13,89 °C,COc1cc(C)c(C(=O)c2c(Cl)cccc2Cl)cc1Oc1ccccc1
14,193 to 194 °C,CC(=O)Oc1cccc2c(-c3ccccc3)c3cccc(OC(C)=O)c3c(OC(C)=O)c12
15,170 to 172 °C,CN(C)c1cccc(C(=O)N2CCC3(CC2)CSC2=C(O3)c3ccccc3C(=O)C2=O)c1
16,147 to 148 °C,CC(=O)N(C)c1cc(Br)cc(S(=O)(=O)c2ccccc2)c1
17,148 to 149 °C,CCOC(=O)c1cc2cc(Oc3ccc(S(C)(=O)=O)cc3)cc(OCc3ccccc3)c2[nH]1
18,171 to 173 °C,Nn1c(C(F)(F)F)cc(=O)n(-c2c(F)cc(Cl)c3c2ONC3c2ccccc2)c1=O (centres undefined)
19,79 to 80 °C,COc1ccc(COc2cccc(C#CC(=O)c3ccccc3)c2)cc1
20,75 to 77 °C,CCCCN1C(=O)c2cccc3c(SC)ccc1c23
21,211 to 213 °C,COC(=O)c1cn(Cc2ccccc2)c2ccc(C3CCCCC3)cc2c1=O
22,162 to 164 °C,Fc1ccc(Cn2cnc3c(-c4ccco4)ncnc32)cc1
23,195 to 200 °C,Cc1c(C(=O)Nc2ccc(N3CCC(N4CCOCC4)CC3)c([N+](=O)[O-])c2)cnn1-c1ccc(Cl)cc1

row,melting point,SMILES
1,152 to 156 °C,COc1ccc(-n2nnc(-c3ccc(F)cc3F)c2N)cc1
2,196 to 198 °C,CCOC(=O)c1sc(-n2ccc(OCc3ccc(C(F)(F)F)o3)cc2=O)nc1C
3,242 to 243 °C,NC(CC(=O)O)C(=O)N1C(=O)c2ccc(C(=O)O)cc2C1=O (centres undefined)
4,209 to 210 °C,CN(c1cccc2cc(C3=NCC(C)(CN4CCN(S(C)(=O)=O)CC4)S3)[nH]c12)S(=O)(=O)c1cccs1 (centres undefined)
5,245 to 250 °C,CCn1c(C)nc2cc(S(=O)(=O)c3cccc4cnccc34)c([N+](=O)[O-])cc21
6,298 to 300 °C,O=c1[nH]c2cc(Cl)ccc2c(O)c1-c1ccccc1[N+](=O)[O-]
7,127 to 129 °C,Cc1ccc(CC(CNC(=O)C(C)c2ccc(NS(C)(=O)=O)c(Cl)c2)COC(=O)C(C)(C)C)cc1C (centres undefined)
8,123 to 124 °C,ON=C1c2ccccc2CCC1Cc1ccccc1 (centres undefined)
9,110 °C,Cc1cccc(NC(=O)NCC(=O)N(CC(=O)OC(C)(C)C)c2cccc(Cl)c2)c1
10,189 to 190 °C,CCCN1C(=O)C(C(=O)Nc2ccc(Cl)cc2)S(=O)(=O)c2ccccc21 (centres undefined)
11,160 to 162 °C,COc1nc(NC(=O)Nc2ccccc2OC)nc(N(CCC(=O)O)Cc2cccc(C)c2)n1
12,170 to 171 °C,COc1cc(F)cc(-c2ccc3c(c2)C(C)(C)OC(=S)N3)c1
13,146 °C,O=c1nc(-c2cccc(CCCO)n2)sc2ccccc12
14,145 to 147 °C,CC(C)c1cccc(C(C)C)c1NC(=O)CC(=O)C1(c2ccccc2)CCCC1
15,189 to 191 °C,NC(Cc1cccc2ccccc12)(C(=O)O)C1CC(C(=O)O)C1 (centres undefined)
16,100 to 105 °C,O[C@H](COc1cccc2[nH]ccc12)CN1CCC(c2c[nH]c3cc(C(F)(F)F)ccc23)CC1
17,210 to 215 °C,COc1cc2oc(=O)c3c(c2cc1NC(C)=O)CCN(CC(C)=O)C3
18,124 to 127 °C,O=c1cccc(-c2ccccn2)[nH]1
19,137 to 138 °C,COc1ccc2c(c1)C(C(=O)N(Cc1ccc(C#N)cc1)c1ccc(C(C)C)cc1)CCC2 (centres undefined)
20,172 to 175 °C,COc1ccc(O)c(C2(O)C(=O)Nc3cccc(Br)c32)n1 (centres undefined)
21,122 to 125 °C,CCCCCCC(C(=O)N1CCCC1CC(=O)O)n1cnc2cc(-c3ccccc3-c3nn[nH]n3)ccc21 (centres undefined)
22,174 to 175 °C,Cc1ccccc1P(=O)(O)c1ccccc1C
23,113 to 117 °C,O=C(O)c1cc(Oc2cc(F)c(C(F)(F)F)c(Cl)c2)ccc1Br

# Continued, compound first:
row,SMILES,melting point
1,O=C1CC=CC(C(=O)O)C1 (centres undefined),98 to 101 °C
2,COc1c(C)nc2sc(Cl)cn2c1=O,138 to 141 °C
3,O=C(NC1CCN(C(=O)NCCC2(C(=O)NCC(F)(F)F)c3ccccc3-c3ccccc32)CC1)c1ccccc1,220 to 222 °C
4,CCCCc1cc(C(=O)OC)c(N)s1,62 to 63 °C
5,CCc1ccccc1N(C=C(C#N)C#N)N=C(C#N)C#N,172 to 174 °C
6,CC(=O)N1CCC(C(=O)c2ccc(Br)cc2F)CC1,111 to 113 °C
7,Cc1ccc([C@@H](O)[C@@H]2[C@@H](C)CCCC2(C)C)cc1,78 to 79 °C
8,CCc1c(CNc2ccc3ccc(C)nc3n2)c(CC)c(CNc2ccc3ccc(C)nc3n2)c(CC)c1CNc1ccc2ccc(C)nc2n1,207 to 208 °C
9,COc1ccc(-c2ccc(C#N)cc2)cc1C=O,146 to 147 °C
10,OC(c1ccc(Cl)cc1)(c1ccccc1F)C1CO1 (centres undefined),120 to 122 °C
11,COc1cc2c3c(c1O)CN(C)CC3c1ccccc1CC2 (centres undefined),173 to 174 °C
12,COc1cc(NC(C)=O)c(OC)cc1C#N,165 to 168 °C
13,Cc1cc2n(C)c(=O)c3cnc(Cl)cc3n2n1,254 °C
14,CC(C)n1c(=O)n(CC2CNCCO2)c2ccccc21 (centres undefined),95 °C
15,CCCc1nc2c(N)nc3ccccc3c2n1CCCCCC(=O)N(C)OC,134 to 135 °C
16,CCN(CC)CCNC(=O)c1cc(Cl)c(N)cc1OCCC(C)OC (centres undefined),76 to 78 °C
17,CO[C@@H]1[C@@H](OC)[C@H](C)O[C@@H](ON(Cc2ccc(-c3ncn(-c4ccc(OC(F)(F)F)cc4)n3)cc2)C(=O)CCC(=O)O)[C@@H]1OC,61 to 75 °C
18,O=C(NCC(F)(F)F)C1(CCCCN2CCN(c3ccc4cccc(Cl)c4n3)CC2)c2ccccc2Oc2ccccc21,68 °C
19,CS(=O)(=O)c1ccc(Cl)cc1[N+](=O)[O-],145 °C
20,C#Cc1ccc(C(=O)OC)nc1,40 to 45 °C
21,CNS(=O)(=O)C(=O)CCOc1cc(Oc2nn(C)c(C(F)(F)F)c2Cl)ccc1[N+](=O)[O-],170 to 172 °C
22,NS(=O)(=O)Cc1ccccc1OC(F)(F)F,127 °C
23,COc1ccc(Oc2nnn[nH]2)cc1,150 °C
24,O=Cc1cnc(Sc2nc3ccccc3[nH]2)s1,188 °C
25,CCOC(=O)CCCOc1ccccc1O,37.2 to 38.4 °C
26,CCOC(=O)c1cnc2ccc(-c3ccc(C(F)(F)F)cc3)cn12,118 °C
27,CN(C)Cn1cnc2c1c(=O)n(C)c(=O)n2C,121 to 123 °C

row,SMILES,melting point
1,Cc1cc2c(cc1C(F)(F)F)NCC2,43 to 44 °C
2,c1ccc(Nc2ncnc3[nH]nc(Nc4ccccc4)c23)cc1,263 to 264 °C
3,COc1ccc(P(c2cc(C)cc(C(C)(C)C)c2O)c2cc(C)cc(C(C)(C)C)c2O)cc1,122 to 124 °C
4,Nc1cc(OCC(CO)OCP(=O)(O)O)nc(N)n1 (racemic),213 °C
5,CCNc1c(OC)cc(C(O)CS(C)(=O)=O)cc1OC (centres undefined),121 to 122 °C
6,COc1cc2c(cc1OC)CCCC(C(=O)N1CCN(Cc3cc(OC)c(OC)c(OC)c3)CC1CN(C)C)=C2 (centres undefined),167 to 169 °C
7,CC(C)=CCNc1ncnc2c1nc(N)n2C1OC(CO)C(O)C1O (centres undefined),121 to 124 °C
8,CC(C)(C)c1ccc(-c2nc3c4[nH]cnc4nc(CP(=O)(O)O)n3n2)cc1,270 °C
9,COc1c(F)ccc2ccc(Cl)nc12,85 to 86 °C
10,CCOC(=O)N=C(NCCCc1c[nH]cn1)NCCC(c1ccccc1)c1ccccc1,125 to 126 °C
11,O=C(O)C(O)(c1cccs1)c1cccs1,84 °C
12,CC(C)(C)c1ccc(Sc2ccc([N+](=O)[O-])cc2)cc1,65 to 66 °C
13,OC1(c2ccc(F)cc2)N=C2SCCN2C1c1ccc(F)cc1 (centres undefined),159 to 160 °C
14,Cn1c(C(F)(F)F)cc(=O)n(-c2cc(C=O)c(Cl)cc2F)c1=O,172 to 174 °C
15,CCCCC(CC)COc1cccc(N2C(C)=CC(=C=C3C(C#N)C(=C(C#N)C#N)OC3(C)C)C=C2C)c1 (centres undefined),181 °C
16,Cc1cc([N+](=O)[O-])c2c(c1Cl)CC(CO)O2 (centres undefined),112 to 115 °C
17,CCOC(=O)C(Cc1ccc(C(N)=S)cc1)(NC(C)=O)C(=O)OCC,168 to 172 °C
18,CN1C(=O)C(NC(=O)Nc2ccccc2[N+](=O)[O-])N=C(c2ccccc2)c2ccccc21 (centres undefined),260 to 261 °C
19,CNc1ccc(C(C)(C)c2ccc(C(C)(C)c3ccc(NC)cc3)cc2)cc1,115 to 122 °C
20,Cc1cc2c(cc1C)SC(C(F)(F)F)C(C(=O)O)=C2 (centres undefined),235 to 237 °C
21,O=CN(O)C(CCCO)CS(=O)(=O)c1ccc(-c2ccc(C(F)(F)F)cc2)cc1 (centres undefined),139 to 140 °C
22,CCCCCCCCCCCCCCCCCC(=O)OC[C@H]1OCC(=NO)[C@@H](O)[C@@H]1O,99 to 105 °C
23,CN1C(=O)[C@H](NC(=O)CCc2ccccc2)N=C(c2ccccc2)c2ccccc21,179 °C
24,C=CC(=O)OCCCCC[C@H]1CC[C@H](c2cccc(F)c2F)CC1,29.6 to 30.7 °C
25,Cc1ccc(NC(=O)Nc2ccc(-c3c(Cc4cccnc4)sc4ncnc(N)c34)cc2)cc1,220 to 223 °C
26,CCCCCCCCCCCCCCOC(=O)OC1CC(C)(C)N(C)C(C)(C)C1,32 to 34 °C
